This is an account of results in PMC6208348 (Nature Communications, 2018).

In test [1] the target is T1, L. longbeachae LUSH SH2 domain (Legionella longbeachae, UniProt D3HPG5).
T1 construct: gene LLO_0448
It is filed as binding.

The target in the next test is T2, L. longbeachae LeSH (Legionella longbeachae, UniProt D3HJY4).
T2 construct: gene LLO_2327
T2 sequence (D3HJY4 1-167 limits assumed): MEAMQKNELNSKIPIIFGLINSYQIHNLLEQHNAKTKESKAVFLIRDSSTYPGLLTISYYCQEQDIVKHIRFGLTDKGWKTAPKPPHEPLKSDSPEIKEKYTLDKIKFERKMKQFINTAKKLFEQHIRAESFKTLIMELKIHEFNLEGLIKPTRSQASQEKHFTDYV

T1 sequence (D3HPG5 3-171 limits assumed): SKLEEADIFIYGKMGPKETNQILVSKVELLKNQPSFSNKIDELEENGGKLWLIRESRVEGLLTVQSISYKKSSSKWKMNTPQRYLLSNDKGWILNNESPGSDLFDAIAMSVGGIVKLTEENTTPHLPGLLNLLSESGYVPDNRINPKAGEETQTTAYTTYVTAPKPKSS

Broadly, the Kd is the free concentration of one partner at which half of the binding sites on the other are occupied at equilibrium, for simple one-to-one binding. Compound `N[C@@H](Cc1ccc(OP(=O)(O)O)cc1)C(=O)NCC(=O)O` [pY-G dipeptide] registered a Kd in test [1] of 810 nM.

As to `N[C@@H](Cc1ccc(OP(=O)(O)O)cc1)C(=O)O` [phosphotyrosine], the “X-ray crystal structure of complex” value on L. longbeachae LeSH is listed as “crystal structures of LeSH in complex with three different pTyr ligands, including the phosphotyrosine itself”.
